Results taken from ChEMBL document CHEMBL1201862, “PubChem BioAssay data set” (2004).
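Briefly, cells in 96-well plates were exposed to five compound concentrations for 48 h, and endpoints were estimated by linear interpolation. Here, GI50 denotes the concentration required for 50% inhibition of growth.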 The source made the active and inactive calls. Rule as the data show it: active = GI50 up to about 1.1 µM and inactive = higher.

Key:
Assay in all cases: growth of human tumour cells (NCI), 48 h
[1] = system: KM12
[2] = system: CCRF-CEM
[3] = system: HOP-92
[4] = system: HCC 2998
[5] = system: UACC-62
[6] = system: SK-MEL-28
[7] = system: SW-620
[8] = system: HOP-62
[9] = system: RXF 393
[10] = system: A498
[11] = system: SK-MEL-5
[12] = system: HCT-116
[13] = system: NCI/ADR-RES
[14] = system: K562
[15] = system: OVCAR-8
[16] = system: SN12C
[17] = system: RPMI-8226
[18] = system: OVCAR-4
[19] = system: SF-268
[20] = system: MOLT-4
[21] = system: SNB-19
[22] = system: PC-3
[23] = system: Hs-578T
[24] = system: M14
[25] = system: UACC-257
[26] = system: A549
[27] = system: OVCAR-3
[28] = system: MDA-N
[29] = system: IGROV-1
[30] = system: SK-OV-3
[31] = system: BT-549
[32] = system: U-251
[33] = system: HL-60
[34] = system: T47D
[35] = system: SK-MEL-2
[36] = system: HCT-15
[37] = system: NCI-H226
[38] = system: MDA-MB-435
[39] = system: SF-539
[40] = system: EKVX
[41] = system: LOX IMVI
[42] = system: MDA-MB-231
[43] = system: OVCAR-5
[44] = system: TK-10
[45] = system: SF-295
[46] = system: ACHN
[47] = system: SR
[48] = system: COLO 205
[49] = system: DU-145
[50] = system: NCI-H460
[51] = system: CAKI-1
[52] = system: NCI-H522
[53] = system: SNB-75
[54] = system: UO-31
[55] = system: HT-29
[56] = system: 786-0
[57] = system: NCI-H23
[58] = system: MCF7
[59] = system: Malme-3M

## C=C1C(=O)O[C@H]2[C@@H]3O[C@@](C)(CC/C=C(\C)CCC[C@@H]2C)[C@H](O)C[C@@H]13
[1]
  GI50: 10.8 µM (inactive)
[2]
  GI50: 10.2 µM (inactive)
[3]
  GI50: 3.42 µM (inactive)
[4]
  GI50: 5.02 µM (inactive)
[5]
  GI50: 3.73 µM (inactive)
[6]
  GI50: 7.31 µM (inactive)
[7]
  GI50: 7.96 µM (inactive)
[8]
  GI50: 10.5 µM (inactive)
[9]
  GI50: 3.94 µM (inactive)
[10]
  GI50: 25.1 µM (inactive)
[11]
  GI50: 2.08 µM (inactive)
[12]
  GI50: 3.66 µM (inactive)
[13]
  GI50: 2.04 µM (inactive)
[14]
  GI50: 1.25 µM (inactive)
[15]
  GI50: 3.15 µM (inactive)
[16]
  GI50: 2.28 µM (inactive)
[17]
  GI50: 2.25 µM (inactive)
[18]
  GI50: 7.18 µM (inactive)
[19]
  GI50: 16.8 µM (inactive)
[20]
  GI50: 3.08 µM (inactive)
[21]
  GI50: > 10 µM (inactive)
[22]
  GI50: 8.49 µM (inactive)
[23]
  GI50: 3.29 µM (inactive)
[24]
  GI50: 1.95 µM (inactive)
[25]
  GI50: 10 µM (inactive)
[26]
  GI50: 6.79 µM (inactive)
[27]
  GI50: 2.59 µM (inactive)
[28]
  GI50: 2.36 µM (inactive)
[29]
  GI50: 4.72 µM (inactive)
[30]
  GI50: 17.6 µM (inactive)
[31]
  GI50: 2.79 µM (inactive)
[32]
  GI50: 13.5 µM (inactive)
[33]
  GI50: 2.34 µM (inactive)
[34]
  GI50: 3.58 µM (inactive)
[35]
  GI50: 11.8 µM (inactive)
[36]
  GI50: 2.56 µM
[37]
  GI50: 2.11 µM (inactive)
[38]
  GI50: 3.06 µM (inactive)
[39]
  GI50: 2.14 µM (inactive)
[40]
  GI50: 22.9 µM (inactive)
[41]
  GI50: 2.86 µM (inactive)
[42]
  GI50: 5.3 µM (inactive)
[43]
  GI50: 13.2 µM (inactive)
[44]
  GI50: 4.81 µM (inactive)
[45]
  GI50: 13.9 µM (inactive)
[46]
  GI50: 1.98 µM (inactive)
[47]
  GI50: 3.16 µM (inactive)
[48]
  GI50: 2.42 µM (inactive)
[49]
  GI50: 6.5 µM (inactive)
[50]
  GI50: 2.99 µM (inactive)
[51]
  GI50: 1.42 µM (inactive)
[52]
  GI50: 1.61 µM (inactive)
[53]
  GI50: 16.4 µM (inactive)
[54]
  GI50: 2.87 µM (inactive)
[55]
  GI50: 1.38 µM (inactive)
[56]
  GI50: 2.75 µM (inactive)
[57]
  GI50: 1.61 µM (inactive)
[58]
  GI50: 2.08 µM (inactive)
[59]
  GI50: 6.32 µM (inactive)
